{"source": "patent US20220257592A1", "about": "“METHODS OF TREATING CANCER” (HOFFMANN-LA ROCHE INC., priority 2019, published 2022)", "test": "Clinical trial safety, integrated analysis of ALKA, STARTRK-1, STARTRK-2, STARTRK-NG (N=504)", "excerpt": "The following categories of frequency have been used: very common ≥1/10, common (≥1/100 to <1/10), uncommon (≥1/1,000 to <1/100), rare (≥1/10,000 to <1/1000), very rare (<1/10,000)."}
{"smiles": "CN1CCN(c2ccc(C(=O)Nc3n[nH]c4ccc(Cc5cc(F)cc(F)c5)cc34)c(NC3CCOCC3)c2)CC1", "note": "[Entrectinib, N-[5-(3,5-difluorobenzyl)-1H-indazol-3-yl]-4-(4-methyl-piperazin-1-yl)-2-(tetrahydro-pyran-4-ylamino)-benzamide]", "values": [{"measurement": "Laboratory: Hyperuricemia, Change from Baseline All Grades", "setting": "N = 382", "value": 50.8, "unit": "%"}, {"measurement": "Laboratory: Hyperuricemia, Change from Baseline to Grade 3 or 4", "setting": "N = 382", "value": 6.8, "unit": "%"}, {"measurement": "Laboratory: Decreased Neutrophils, Change from Baseline All Grades", "setting": "N = 457", "value": 27.8, "unit": "%"}, {"measurement": "Laboratory: Decreased Neutrophils, Change from Baseline to Grade 3 or 4", "setting": "N = 457", "value": 6.3, "unit": "%"}, {"measurement": "Laboratory: Increased AST, Change from Baseline All Grades", "setting": "N = 478", "value": 43.3, "unit": "%"}, {"measurement": "Laboratory: Increased AST, Change from Baseline to Grade 3 or 4", "setting": "N = 478", "value": 3.3, "unit": "%"}, {"measurement": "Laboratory: Increased ALT, Change from Baseline All Grades", "setting": "N = 479", "value": 38.4, "unit": "%"}, {"measurement": "Laboratory: Increased ALT, Change from Baseline to Grade 3 or 4", "setting": "N = 479", "value": 3.1, "unit": "%"}, {"measurement": "Laboratory: Increased Blood Creatinine, Change from Baseline All Grades", "setting": "N = 480", "value": 94.8, "unit": "%"}, {"measurement": "Laboratory: Increased Blood Creatinine, Change from Baseline to Grade 3 or 4", "setting": "N = 480", "value": 3.1, "unit": "%"}, {"measurement": "Laboratory: Decreased Hemoglobin, Change from Baseline All Grades", "setting": "N = 487", "value": 65.7, "unit": "%"}, {"measurement": "Laboratory: Decreased Hemoglobin, Change from Baseline to Grade 3 or 4", "setting": "N = 487", "value": 9.2, "unit": "%"}, {"measurement": "ALT increased, All Grades", "setting": "N = 504", "value": 16.1, "unit": "%"}, {"measurement": "ALT increased, Frequency Category (All Grades)", "setting": "N = 504", "value": "very common (very common ≥1/10)"}, {"measurement": "ALT increased, Grade ≥3", "setting": "N = 504", "value": 3.4, "unit": "%"}, {"measurement": "AST increased, All Grades", "setting": "N = 504", "value": 17.5, "unit": "%"}, {"measurement": "AST increased, Frequency Category (All Grades)", "setting": "N = 504", "value": "very common (very common ≥1/10)"}, {"measurement": "AST increased, Grade ≥3", "setting": "N = 504", "value": 3.6, "unit": "%"}, {"measurement": "Abdominal pain, All Grades", "setting": "N = 504", "value": 11.1, "unit": "%"}, {"measurement": "Abdominal pain, Frequency Category (All Grades)", "setting": "N = 504", "value": "very common (very common ≥1/10)"}, {"measurement": "Abdominal pain, Grade ≥3", "setting": "N = 504", "value": 0.6, "unit": "%"}, {"measurement": "Anemia, All Grades", "setting": "N = 504", "value": 28.2, "unit": "%"}, {"measurement": "Anemia, Frequency Category (All Grades)", "setting": "N = 504", "value": "very common (very common ≥1/10)"}, {"measurement": "Anemia, Grade ≥3", "setting": "N = 504", "value": 9.7, "unit": "%"}, {"measurement": "Arthralgia, All Grades", "setting": "N = 504", "value": 19.0, "unit": "%"}, {"measurement": "Arthralgia, Frequency Category (All Grades)", "setting": "N = 504", "value": "very common (very common ≥1/10)"}, {"measurement": "Arthralgia, Grade ≥3", "setting": "N = 504", "value": 0.6, "unit": "%"}, {"measurement": "Ataxia, Frequency Category (All Grades)", "setting": "N = 504", "value": "very common (very common ≥1/10)"}, {"measurement": "Ataxia, Grade ≥3", "setting": "N = 504", "value": 0.8, "unit": "%"}, {"measurement": "Blood creatinine increased, All Grades", "setting": "N = 504", "value": 25.4, "unit": "%"}, {"measurement": "Blood creatinine increased, Frequency Category (All Grades)", "setting": "N = 504", "value": "very common (very common ≥1/10)"}, {"measurement": "Blood creatinine increased, Grade ≥3", "setting": "N = 504", "value": 0.6, "unit": "%"}, {"measurement": "Cognitive Disorders, All Grades", "setting": "N = 504", "value": 24.2, "unit": "%"}, {"measurement": "Cognitive Disorders, Frequency Category (All Grades)", "setting": "N = 504", "value": "very common (very common ≥1/10)"}, {"measurement": "Cognitive Disorders, Grade ≥3", "setting": "N = 504", "value": 4.4, "unit": "%"}, {"measurement": "Congestive Heart Failure, All Grades", "setting": "N = 504", "value": 3.0, "unit": "%"}, {"measurement": "Congestive Heart Failure, Frequency Category (All Grades)", "setting": "N = 504", "value": "common (common (≥1/100 to <1/10))"}, {"measurement": "Congestive Heart Failure, Grade ≥3", "setting": "N = 504", "value": 2.2, "unit": "%"}, {"measurement": "Constipation, All Grades", "setting": "N = 504", "value": 42.9, "unit": "%"}, {"measurement": "Constipation, Frequency Category (All Grades)", "setting": "N = 504", "value": "very common (very common ≥1/10)"}, {"measurement": "Constipation, Grade ≥3", "setting": "N = 504", "value": 0.4, "unit": "%"}, {"measurement": "Cough, All Grades", "setting": "N = 504", "value": 21.4, "unit": "%"}, {"measurement": "Cough, Frequency Category (All Grades)", "setting": "N = 504", "value": "very common (very common ≥1/10)"}, {"measurement": "Cough, Grade ≥3", "setting": "N = 504", "value": 0.6, "unit": "%"}, {"measurement": "Decreased appetite, All Grades", "setting": "N = 504", "value": 11.9, "unit": "%"}, {"measurement": "Decreased appetite, Frequency Category (All Grades)", "setting": "N = 504", "value": "very common (very common ≥1/10)"}, {"measurement": "Decreased appetite, Grade ≥3", "setting": "N = 504", "value": 0.2, "unit": "%"}, {"measurement": "Dehydration, All Grades", "setting": "N = 504", "value": 7.9, "unit": "%"}, {"measurement": "Dehydration, Frequency Category (All Grades)", "setting": "N = 504", "value": "common (common (≥1/100 to <1/10))"}, {"measurement": "Dehydration, Grade ≥3", "setting": "N = 504", "value": 1.0, "unit": "%"}, {"measurement": "Diarrhea, All Grades", "setting": "N = 504", "value": 33.5, "unit": "%"}, {"measurement": "Diarrhea, Frequency Category (All Grades)", "setting": "N = 504", "value": "very common (very common ≥1/10)"}, {"measurement": "Diarrhea, Grade ≥3", "setting": "N = 504", "value": 2.6, "unit": "%"}, {"measurement": "Dizziness, All Grades", "setting": "N = 504", "value": 39.7, "unit": "%"}, {"measurement": "Dizziness, Frequency Category (All Grades)", "setting": "N = 504", "value": "very common (very common ≥1/10)"}, {"measurement": "Dizziness, Grade ≥3", "setting": "N = 504", "value": 1.2, "unit": "%"}, {"measurement": "Dysasthesia, All Grades", "setting": "N = 504", "value": 29.0, "unit": "%"}, {"measurement": "Dysasthesia, Frequency Category (All Grades)", "setting": "N = 504", "value": "very common (very common ≥1/10)"}, {"measurement": "Dysasthesia, Grade ≥3", "setting": "N = 504", "value": 0.2, "unit": "%"}, {"measurement": "Dysgeusia, All Grades", "setting": "N = 504", "value": 42.3, "unit": "%"}, {"measurement": "Dysgeusia, Frequency Category (All Grades)", "setting": "N = 504", "value": "very common (very common ≥1/10)"}, {"measurement": "Dysgeusia, Grade ≥3", "setting": "N = 504", "value": 0.4, "unit": "%"}, {"measurement": "Dysphagia, All Grades", "setting": "N = 504", "value": 10.1, "unit": "%"}, {"measurement": "Dysphagia, Frequency Category (All Grades)", "setting": "N = 504", "value": "very common (very common ≥1/10)"}, {"measurement": "Dysphagia, Grade ≥3", "setting": "N = 504", "value": 0.4, "unit": "%"}, {"measurement": "Dyspnea, All Grades", "setting": "N = 504", "value": 27.0, "unit": "%"}, {"measurement": "Dyspnea, Frequency Category (All Grades)", "setting": "N = 504", "value": "very common (very common ≥1/10)"}, {"measurement": "Edema, All Grades", "setting": "N = 504", "value": 37.3, "unit": "%"}, {"measurement": "Edema, Frequency Category (All Grades)", "setting": "N = 504", "value": "very common (very common ≥1/10)"}, {"measurement": "Edema, Grade ≥3", "setting": "N = 504", "value": 1.4, "unit": "%"}, {"measurement": "Electrocardiogram QT prolonged, All Grades", "setting": "N = 504", "value": 2.0, "unit": "%"}, {"measurement": "Electrocardiogram QT prolonged, Grade ≥3", "setting": "N = 504", "value": 0.6, "unit": "%"}, {"measurement": "Fatigue, All Grades", "setting": "N = 504", "value": 45.0, "unit": "%"}, {"measurement": "Fatigue, Frequency Category (All Grades)", "setting": "N = 504", "value": "very common (very common ≥1/10)"}, {"measurement": "Fatigue, Grade ≥3", "setting": "N = 504", "value": 5.0, "unit": "%"}, {"measurement": "Fractures, All Grades", "setting": "N = 504", "value": 6.2, "unit": "%"}, {"measurement": "Fractures, Frequency Category (All Grades)", "setting": "N = 504", "value": "common (common (≥1/100 to <1/10))"}, {"measurement": "Fractures, Grade ≥3", "setting": "N = 504", "value": 2.4, "unit": "%"}, {"measurement": "Headache, All Grades", "setting": "N = 504", "value": 17.5, "unit": "%"}, {"measurement": "Headache, Frequency Category (All Grades)", "setting": "N = 504", "value": "very common (very common ≥1/10)"}, {"measurement": "Headache, Grade ≥3", "setting": "N = 504", "value": 1.0, "unit": "%"}, {"measurement": "Hyperuricemia, All Grades", "setting": "N = 504", "value": 9.1, "unit": "%"}, {"measurement": "Hyperuricemia, Frequency Category (All Grades)", "setting": "N = 504", "value": "common (common (≥1/100 to <1/10))"}, {"measurement": "Hyperuricemia, Grade ≥3", "setting": "N = 504", "value": 1.8, "unit": "%"}, {"measurement": "Hypotension, All Grades", "setting": "N = 504", "value": 16.5, "unit": "%"}, {"measurement": "Hypotension, Frequency Category (All Grades)", "setting": "N = 504", "value": "very common (very common ≥1/10)"}, {"measurement": "Hypotension, Grade ≥3", "setting": "N = 504", "value": 2.4, "unit": "%"}, {"measurement": "Lung infection, All Grades", "setting": "N = 504", "value": 13.1, "unit": "%"}, {"measurement": "Lung infection, Frequency Category (All Grades)", "setting": "N = 504", "value": "very common (very common ≥1/10)"}, {"measurement": "Mood disorders, All Grades", "setting": "N = 504", "value": 9.1, "unit": "%"}, {"measurement": "Mood disorders, Frequency Category (All Grades)", "setting": "N = 504", "value": "common (common (≥1/100 to <1/10))"}, {"measurement": "Mood disorders, Grade ≥3", "setting": "N = 504", "value": 0.6, "unit": "%"}, {"measurement": "Muscular weakness, All Grades", "setting": "N = 504", "value": 12.3, "unit": "%"}, {"measurement": "Muscular weakness, Frequency Category (All Grades)", "setting": "N = 504", "value": "very common (very common ≥1/10)"}, {"measurement": "Muscular weakness, Grade ≥3", "setting": "N = 504", "value": 1.2, "unit": "%"}, {"measurement": "Myalgia, All Grades", "setting": "N = 504", "value": 19.6, "unit": "%"}]}
